Measurements as given in patent US11357786B2, “Synthetic disugar hydrocarbons as natural analogs to control microbial behaviors” (Syracuse University, priority 2014, dated 2022).
Entries after “also recorded” stand apart in the source; their conditions may differ. Where two headings read alike, the source gives them in different places.

How the values were obtained:
PAO1 biofilm [1] = assay: Crystal violet dye based biofilm inhibition assay, maltose derivatives (Example 1); assay type: cell-based, Pseudomonas aeruginosa; conditions: for IC50: CV dye based assay; for Inhibition of PAO1 biofilm: 110 μM, 24 h, CV assay
Procedure: (§1) A crystal violet (CV) assay was used to measure the amount of PAO1 biofilm formed after 24 h of bacterial inoculation. The fluorescence of green fluorescent proteins (GFP) expressed by PAO1-GFP was measured to directly quantify bacterial adhesion on polystyrene black 96 well plates with and without maltose derivatives after 2 h of bacterial inoculation. To evaluate the potential of maltose derivatives as both anti-biofilm and anti-adhesion agents, they were compared to a brominated furanone (BF8) known to inhibit biofilm formation, and two generic surfactants, sodium dodecyl sulfate (SDS) and tetra (ethylene glycol) monododecyl ether (C12EG4OH). […] P. aeruginosa strain PAO1-EGFP that constitutively producing green fluorescent protein was allowed to form biofilm on sterile steel coupons.
Inhibitory effect of all the maltose hydrocarbons on P. aeruginosa biofilm formation was determined by crystal violet dye based biofilm inhibition assays. Overnight culture of wild type P. aeruginosa (PAO1) was sub cultured to an OD600 of 0.01 into the 95:5 M9+:Lb medium. 200 μL of the sub culture was aliquoted into the wells of 96 well polystyrene microtiter plate when it reached the OD600 of 0.1. Predetermined concentrations of the test compounds were then added to the respective wells containing sub culture. Sample plates were wrapped in GLAD Press n′ Seal® followed by incubation under stationary conditions for 24 h at 37° C. After incubation the media was discarded and the plates were washed with water and dried for 1 h at 37° C. The sample plates were stained with 200 μL of 0.1% aqueous solution of crystal violet (CV) and followed by incubation at ambient temperature for 20 min. The CV stain was then discarded and the plates were washed with water. The remaining biofilm adhered stain was re-solubilized with 200 μL of 30% acetic acid. After the stain was dissolved (15 minutes), 100 μL of the solubilized CV was transferred from each well into the corresponding wells of a new polystyrene microtiter dish. Biofilm inhibition was quantified by measuring the OD600 of each well in which a negative control lane wherein no biofilm was formed served as a background and was subtracted out. The percent inhibition was calculated by the comparison of the OD600 for biofilm grown in the absence of compound (control) versus biofilm grown in the presence of compound under identical conditions.
(§2) Predetermined amounts maltose derivatives stock solution was added to the 200 μL bacterial culture in 96 well plate so that the final concentration of the agent reaches the desired values of 1, 5, 10, 20, 40, 85, 113, 140 μM. Biofilm inhibition and dispersion assay was carried as described previously.

24 h old PAO1 biofilm = assay: Crystal violet biofilm dispersion assay, maltose derivatives (Example 1); assay type: cell-based, Pseudomonas aeruginosa; conditions: for DC50: 24 h old biofilm, read-out: Biofilm dispersion DC50 (half-maximal dispersion)
Procedure: Chemical dispersion of already formed biofilm is often more relevant to medical application, and more challenging than biofilm inhibition assays, for which the agents are introduced at the onset of an experiment. We screened the ability of maltose derivatives at 110 μM to disperse 24 h old biofilm.
PAO1 was allowed to grow for 24 h at 37° C. After 24 h, bacterial culture was pipetted out and replaced with 200 μL of 110 μM maltose hydrocarbons and sterile water (control). After 1 h treatment with maltose hydrocarbons, biofilm was fixed and quantified using crystal violet dye as described above. The amount of dispersed biofilm was determined via comparison of the amount of biofilm at 24 h in the presence of maltose hydrocarbons versus the amount of biofilm in the “no compound” positive control at 24 h (wells with water treatment).
as §2

[2] = tested on: nonswarming P. aeruginosa mutant rhlA; assay: Swarming motility of nonswarming rhlA mutant on soft agar (reactivation / agonist assay); assay type: cell-based, Pseudomonas aeruginosa; conditions: for Swarming motility of rhlA mutant: 85 μM in soft agar (0.5%), 24 h
Summary of the method: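 rhlA transposon mutant of PAO1 (3 μl, OD600 0.4–0.6) inoculated on M8 soft agar (0.2% glucose, 0.5% casamino acids, 1 mM MgSO4, 0.5% agar) with test compound to find swarming agonists. Incubated 12 h at 37 °C plus 12 h at room temperature; swarm area measured by weighing paper cut-outs of imaged swarms.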

PAO1-GFP = assay: microbe, parasite or virus in culture; assay type: cell-based, Pseudomonas aeruginosa
Procedure: as §1
Overnight culture of PAO1-GFP was subcultured to an OD600 of 0.01 into the 95:5 M9+:Lb medium. Subculture was allowed to reach the OD600 of 0.1 in a rotary shaker at 250 rpm and 37° C. 200 μL of the subculture was then transferred to the wells of black microtiter plate with and without (control) maltose derivatives. This black 96 well plate was then incubated in a shaker at 37° C. for 2 h. After 2 h, bacterial culture from the plate was discarded and each well was washed once with saline water (0.85 w/v % aqueous NaCl solution). Fresh 95:5 M9+:Lb medium was added to the black 96 well plate and fluorescence of the surface adhered bacteria was measured by Synergy 2 multi-mode microplate reader with Gen5 data analysis software at an excitation wavelength of 500 nm and an emission wavelength of 540 nm. Background signal from 95:5 M9+:Lb medium was eliminated from all the samples.

wild type PAO1 = assay: Swarming motility of wild type PAO1 on soft agar (antagonist assay); assay type: cell-based, Pseudomonas aeruginosa
Summary of the method: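 Wild-type PAO1 culture (OD600 ~0.4–0.6, 3 μl) spotted on M8 swarm agar with 0.2% glucose, 0.5% casamino acids, 1 mM MgSO4 and 0.5% agar. Plates incubated 12 h at 37 °C then 12 h at room temperature; swarm area measured by cutting and weighing printed plate images.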

PAO1-EGFP = assay: Fluorescence adhesion assay on polystyrene, DSHs (Examples 2 and 4); assay type: cell-based, Pseudomonas aeruginosa; conditions: 160 μM
Procedure: The ability of DSHs was tested to inhibit Pseudomonas aeruginosa adhesion, biofilm and to disperse pre-formed biofilm. To quantify the amount of PAO1/EGFP attached on the surface of micro titer plates with or without the synthesized DSHs, fluorescence emitted by green fluorescent proteins (GFP) was quantified (see supporting info for details). Crystal violet (CV) based static biofilm assay (see supporting info) was used to screen the anti-biofilm potencies of all synthesized agents. Both surface attached (SA) (FIG. 17) and total (SA+air-liquid interface) biofilm of P. aeruginosa was quantified. […] CV assays were also used to quantify the amount of P. aeruginosa biofilm remaining after dispersion experiments (FIG. 19). Initially, all agents were screen for anti-biofilm activities (both inhibition and dispersion) at 160 μM. […]
The effect that DSHs have on the adhesion of PAO1-EGFP on polystyrene surface (microtiter plate) was also examined. […] After 24-hours, the fluorescent signal obtained from surface adhered PAO1-EGFP was measured. Percent reduction in fluorescence was calculated by comparing fluorescent signal from PAO1-EGFP grown in LB-media with the signal from wells that had DSHs (FIG. 29A). […] After 24 hours, the surface attached biofilms adhering to the bottom of the wells were stained with crystal-violet dye and the biofilm was quantified by measuring absorbance at 600 nm (OD600). […]

PAO1 biofilm [3] = assay: Crystal violet based static biofilm inhibition assay, DSHs in LB media (Examples 2 and 4); assay type: cell-based, Pseudomonas aeruginosa
Summary of the method: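 PAO1 subculture (OD600 ~0.1) was grown statically in LB at 37° C for 24 h with or without DSHs (screened at 160 μM). Surface-attached biofilm was then stained with 0.1% crystal violet, solubilised in 30% AcOH and read at 600 nm. Values are the mean of 4 wells.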

[4] = tested on: Pseudomonas aeruginosa strain PAO1-BAA-47; assay: Mouse P. aeruginosa pneumonia model; assay type: in vivo; conditions: SP-A/D KO mice

Procedure for Solubility in water: Stock solution of disaccharide hydrocarbons (DSHs). Stock solution (˜11.5 mM) of all synthesized and commercially available DSHs were prepared in autoclaved water and further sterilized by filtering through cellulose acetate syringe filter (0.2 μm pore size, GVS filter technology) into sterilized vials. The vials containing sterilized DSHs stocks were capped and stored at −20° C. and thawed prior to each use. Appropriate volume of sterile water was added to positive controls (no agents) in all assays to eliminate the effect of water. Stock solution of DβL (7), SFβL (15) and 2-ODαC (17) were prepared in sterile water and 200 proof EtOH in 90:10 ratio. For positive controls involving DβL (7), SFβL (15) and 2-ODαC (17) appropriate volumes of 90:10, H2O:EtOH was added.

Compound: O=C(c1ccccc1)c1ccc(COCCCCCCCCCCO[C@@H]2O[C@H](CO)[C@@H](O[C@H]3O[C@H](CO)[C@@H](O)[C@H](O)[C@H]3O)[C@H](O)[C@H]2O)cc1 [BPDeβM, benzophenonyl decyl β-maltoside]
- IC50 (PAO1 biofilm [1]): 22.5 µM
- DC50 (24 h old PAO1 biofilm): 31 µM
- Swarming motility of rhlA mutant [2]: swarming motility with without well-defined tendrils

Compound: CC(C)CCCC(C)CCCC(C)CCO[C@@H]1O[C@H](CO)[C@@H](O[C@@H]2O[C@H](CO)[C@H](O)[C@H](O)[C@H]2O)[C@H](O)[C@H]1O (stereo partly drawn) [SFβL (15), saturated famesyl-β-lactoside]
- Solubility in water (Solubility in water): poor water-solubility
- Solubility in water (Solubility in water; listed as 15: SFβL): poor solubility in water; also recorded: not soluble in either water or in water/EtOH mixture

Compound: 12-hydroxy decyl β-maltose [12-HODeβM]
- Inhibition of PAO1 biofilm (PAO1 biofilm [1]): about 30%
- Inhibition of PAO1 biofilm (PAO1 biofilm [1]; listed as HODeβM): 32%
- Inhibition of PAO1-EGFP adhesion on polystyrene (PAO1-GFP; 85 μM, 2 h): about 7%
- Swarming motility of rhlA mutant [2]: did not exhibit any significant activation of swarming

Compound: CCCCCCCCCCCCO[C@@H]1O[C@@H](C)[C@H](O)[C@@H](O)[C@H]1O [DαR (9), dodecyl-α-rhamnoside]
- Swarming motility of wild type PAO1 (wild type PAO1; 85 μM in soft agar, 24 h): inhibited the swarming motility of wild type PAO1
- Effect on PAO1 swarming (wild type PAO1; concentration not given): PAO1 swarming inhibitors
- Adhesion inhibition of PAO1-EGFP on polystyrene (PAO1-EGFP): 63%
- Swarming motility of rhlA mutant [2]: no apparent effect on rhlA
- Inhibition of PAO1 biofilm formation (surface attached) (PAO1 biofilm [3]; 160 μM, 24 h, LB media, listed as 8: DαR, 160 µM): poor anti-biofilm activity
- Anti-biofilm activity (biofilm inhibition) (PAO1 biofilm [3]; concentration not given): weak anti-biofilm activity

Compound: benzyl dodecyl β-maltoside [BDβM]
- IC50 (PAO1 biofilm [1]): 27.5 µM
- DC50 (24 h old PAO1 biofilm): 32 µM
- Swarming motility of rhlA mutant [2]: swarming motility with without well-defined tendrils

Compound: CC1=C(Br)/C(=C/Br)OC1=O [BF8]
- Inhibition of PAO1 biofilm (PAO1 biofilm [1]): about 35%
- Inhibition of PAO1 adhesion on polystyrene (PAO1-GFP; 100 μM): showed no inhibition; also recorded: does not inhibit the adhesion

Compound: CCCCCCCCCCCC[N+](C)(C)C.[Cl-] [DTAC, dodecyl trimethyl ammonium chloride, reference compound]
- Anti-biofilm activity (inhibition) (PAO1 biofilm [1]; concentration not given): did not show any anti-biofilm activities
- Anti-biofilm activity (dispersion) (24 h old PAO1 biofilm; concentration not given): did not show any anti-biofilm activities
- Reactivation of swarming motility of rhlA mutant ([2]; concentration not given): did not promote or reactivate

Compound: CCCCCCCCCCCCO[C@@H]1O[C@H](CO)[C@@H](O[C@H]2O[C@H](CO)[C@@H](O)[C@H](O)[C@H]2O)[C@H](O)[C@H]1O [DM, Dodecyl Maltoside]
- CFU number in the lung ([4]; 50 μl of 170 μM intratracheal 24 h after infection, sacrifice 24 h later): significantly decreased CFU number in the lung
- Lung inflammation (histology, H&E) ([4]; 50 μl of 170 μM intratracheal): improved the lung inflammation
